Experimental data from ChEMBL document CHEMBL2074283, “Interaction of pristinamycin IA with P-glycoprotein in human intestinal epithelial cells” (Eur J Pharmacol, 1995).
Bridge positions count the residues as written; N and C are the ends. Square brackets hold non-standard residues; d marks the D form. Peptide text beside a SMILES is read from it. * marks the point of attachment. NMePhe(4-NMe2) = CN[C@@H](Cc1ccc(N(C)C)cc1)C(=O)O; Pip(4-oxo) = O=C1CCN[C@H](C(=O)O)C1; Picolinoyl(3-OH) = O=C(c1ncccc1O)*; Phg = N[C@H](C(=O)O)c1ccccc1; dAbu = CC[C@@H](N)C(=O)O

What was measured:
P-glycoprotein (ABCB1) = P-glycoprotein (ABCB1) (Homo sapiens, UniProt P08183); experiment: TP_TRANSPORTER: inhibition of Vinblastine transepithelial transport (basal to apical) (Vinblastine: 0.05 uM, Pristinamycin IA: 100 uM) in Caco-2 cells; assay type: functional, cell-based; details: Caco-2, probe Vinblastine 0.05 uM
P-glycoprotein (ABCB1), sequence (P08183 whole entry): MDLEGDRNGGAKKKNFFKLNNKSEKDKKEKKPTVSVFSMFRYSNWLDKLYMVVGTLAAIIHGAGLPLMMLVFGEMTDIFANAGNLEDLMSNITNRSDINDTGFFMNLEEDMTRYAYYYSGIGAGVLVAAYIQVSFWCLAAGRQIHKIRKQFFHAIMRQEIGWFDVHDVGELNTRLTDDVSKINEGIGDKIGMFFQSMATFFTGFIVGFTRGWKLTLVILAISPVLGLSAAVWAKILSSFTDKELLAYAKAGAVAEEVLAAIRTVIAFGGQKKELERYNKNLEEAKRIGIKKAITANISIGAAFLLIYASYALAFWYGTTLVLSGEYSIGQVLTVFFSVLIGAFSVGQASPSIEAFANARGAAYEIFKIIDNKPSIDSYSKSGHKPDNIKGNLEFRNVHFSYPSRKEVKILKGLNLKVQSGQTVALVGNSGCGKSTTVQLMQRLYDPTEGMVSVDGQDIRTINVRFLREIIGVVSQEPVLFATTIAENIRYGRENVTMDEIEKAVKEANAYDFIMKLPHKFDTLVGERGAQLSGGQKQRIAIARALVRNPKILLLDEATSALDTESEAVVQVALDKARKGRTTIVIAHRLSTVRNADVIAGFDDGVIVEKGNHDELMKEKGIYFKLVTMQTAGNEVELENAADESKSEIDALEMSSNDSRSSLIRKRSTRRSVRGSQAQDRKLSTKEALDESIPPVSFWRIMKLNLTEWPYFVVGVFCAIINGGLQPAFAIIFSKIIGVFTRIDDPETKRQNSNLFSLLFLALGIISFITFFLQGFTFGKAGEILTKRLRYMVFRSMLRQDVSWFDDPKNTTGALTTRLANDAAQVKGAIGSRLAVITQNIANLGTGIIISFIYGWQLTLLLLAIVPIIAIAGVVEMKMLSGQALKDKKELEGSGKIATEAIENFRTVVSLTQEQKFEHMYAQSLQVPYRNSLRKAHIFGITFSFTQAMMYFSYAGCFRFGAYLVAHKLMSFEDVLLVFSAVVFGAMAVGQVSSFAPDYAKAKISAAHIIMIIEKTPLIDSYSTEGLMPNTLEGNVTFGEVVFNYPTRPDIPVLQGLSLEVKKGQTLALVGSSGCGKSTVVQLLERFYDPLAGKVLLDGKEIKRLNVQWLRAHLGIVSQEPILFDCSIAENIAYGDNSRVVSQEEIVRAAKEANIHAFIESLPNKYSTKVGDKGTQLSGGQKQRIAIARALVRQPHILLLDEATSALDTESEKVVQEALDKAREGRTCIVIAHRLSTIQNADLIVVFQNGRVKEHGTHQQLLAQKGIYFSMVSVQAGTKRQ

[1] = target: ATP-dependent translocase ABCB1 (Homo sapiens, UniProt P08183); experiment: TP_TRANSPORTER: transepithelial transport (basal to apical) in Caco-2 cells; assay type: functional, cell-based
ATP-dependent translocase ABCB1, sequence (P08183 whole entry): as above

Question: `CC[C@H]1NC(=O)[C@@H](NC(=O)c2ncccc2O)[C@@H](C)OC(=O)[C@H](c2ccccc2)NC(=O)[C@@H]2CC(=O)CCN2C(=O)[C@H](Cc2ccc(N(C)C)cc2)N(C)C(=O)[C@@H]2CCCN2C1=O` [PRISTINAMYCIN 1A] ({Picolinoyl(3-OH)}-T[dAbu]P[NMePhe(4-NMe2)][Pip(4-oxo)][Phg]; ester 1-C) was tested. Which inhibition at 100 µM (P-glycoprotein (ABCB1)) did it give?
Answer: 55%

Question: And the Activity [1]?
Answer: substrate [+]
